According to patent US11013235B2 (priority 2015, dated 2021):
Where two headings read alike, the source gives them in different places.

Columns and labels:
Format in all cases: in vivo
[1] = tested on: Candidatus 'Liberibacter asiaticus'; details: spraying every 15 days, 12 months after treatment, Citrus sinensis with HLB
[2] = tested on: Phytophthora parasitica; assay: Control of Phytophthora parasitica disease in tobacco (Pp-Nt); details: 1 μM spraying every 24 hours for one week, water control 91
[3] = tested on: Rhizoctonia solani; assay: Control of Rhizoctonia solani disease in tobacco (Rs-Nt); details: 1 μM spraying every 24 hours for one week, water control 87
[4] = tested on: Nocardia sp; assay: Control of Nocardia sp disease in tobacco (N-Nt); details: 1 μM spraying every 24 hours for one week, water control 58
In short: (§1)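 Post-inoculation foliar spray, 1 μM, q24h × 1 wk; n = 50 plants/treatment; water control. Endpoints: mortality rate (Nocardia), % symptomatic leaves (Alternaria), lesion diameter (Botrytis).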

[5] = tested on: Rhizoctonia solani; assay: Control of Rhizoctonia solani disease in tomato (Rs-SI); details: 1 μM spraying every 24 hours for one week, water control 96
[6] = tested on: Alternaria solani; assay: Control of Alternaria solani disease in tomato (As-SI); details: 1 μM spraying every 24 hours for one week, water control 68
In short: as §1

[7] = tested on: Botrytis cinerea; assay: Control of Botrytis cinerea disease in Arabidopsis (Bc-At); details: 1 μM spraying every 24 hours for one week, water control 8.7
In short: as §1

[8] = tested on: Botrytis cinerea; assay: Control of Botrytis cinerea disease in tobacco (Bc-Nt); details: 1 μM spraying every 24 hours for one week, water control 6.7
In short: as §1

[9] = tested on: Botrytis cinerea; assay: Control of Botrytis cinerea disease in tomato (Bc-SI); details: 1 μM spraying every 24 hours for one week, water control 7.4
In short: as §1

[10] = tested on: Radopholus similis; assay: Nematode control, nodules per plant: Radopholus similis; details: 1 μM foliar application every 5 days, evaluation 35 days after, control 45
In short: (§2)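 Read-out: nodule count per plant at final evaluation 35 days after start. Foliar spray of 1 μM compound (ethanol stock diluted in water) repeated every 5 days, ten plants per treatment.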

[11] = tested on: Meloidogyne incognita; assay: Nematode control, nodules per plant: Meloidogyne incognita; details: 1 μM foliar application every 5 days, evaluation 35 days after, control 34
In short: as §2

[12] = tested on: Pratylenchus coffeae; assay: Nematode control, nodules per plant: Pratylenchus coffeae; details: 1 μM foliar application every 5 days, evaluation 35 days after, control 42
In short: as §2

SMILES	Titers of the bacterium ([1]; 0.001 μM) [copies per reaction]	Titers of the bacterium ([1]; 0.01 μM) [copies per reaction]	Titers of the bacterium ([1]; 1 μM) [copies per reaction]	Titers of the bacterium ([1]; 5 μM) [copies per reaction]	Titers of the bacterium ([1]; 10 μM) [copies per reaction]	Pp-Nt: percentage of mortality [2] [%]	Rs-Nt: percentage of mortality [3] [%]	N-Nt: percentage of mortality [4] [%]	Rs-SI: percentage of mortality [5] [%]	As-SI: percentage of leaves with the disease symptoms [6] [%]	Bc-At: mean of the diameter of the lesion [7] [mm]	Bc-Nt: mean of the diameter of the lesion [8] [mm]	Bc-SI: mean of the diameter of the lesion [9] [mm]	Rs: number of nodules per plant [10]	Mi: number of nodules per plant [11]	Pc: number of nodules per plant [12]
O=C(CCc1cc2cc3c(C4CCCC4)coc3cc2oc1=O)NCC(O)CO (stereo not drawn) [ID, 3-{6-cyclopentyl-2-oxo-2H-furo[3,2-g]chromen-3-yl}-N-(2,3-dihydroxypropyl)propanamide]	123	0	0	123	5489	0	0	1	2	8	1.5	1.5	2.5	0	0	11
O=C(CCc1cc2cc3ccoc3cc2oc1=O)NCC(O)CO (stereo not drawn) [IF, N-(2,3-dihydroxypropyl)-3-{2-oxo-2H-furo[3,2-g]chromen-3-yl}propanamide]	985	0	0	98	6325	0	0	0	1	5	0.7	0.9	1.2	0	0	0
Cc1c2c(oc(=O)c1CC(=O)NCC(O)CO)C=CC1C(n3cccc3)=COC21 (stereo not drawn) [IIN, N-(2,3-dihydroxypropyl)-2-[13-methyl-11-oxo-5-(1H-pyrrol-1-yl)-3,10-dioxatricyclo[7.4.0.0^{2,6}]trideca-1(9),4,7,12-tetraen-12-yl]acetamide]	598	0	0	98	9654	3	0	0	1	7	1.5	1.5	2.5	3	0	0
O=C(c1cnc(N2CCN(c3ccccc3)CC2)nc1)N1CC2CC(O)C(O)CC2C1 (stereo not drawn) [IIIC, 2-{[2-(4-phenylpiperazin-1-yl)pyrimidin-5-yl]carbonyl}-octahydro-1H-isoindole-5,6-diol]	587	0	0	87	3654	1	4	2	2	3	1.2	0.3	0.8	14	4	2
Cc1c(CCC(=O)NCC(O)CO)c(=O)oc2cc3occ(C4CCCCC4)c3cc12 (stereo not drawn) [IJ, 3-{6-cyclohexyl-4-methyl-2-oxo-2H-furo[3,2-g]chromen-3-yl}-N-(2,3-dihydroxypropyl)propanamide]	456	0	18	46	5840	1	4	2	2	3	1.5	1.5	2.5	18	4	24
Cc1c(CCC(=O)NCC(O)CO)c(=O)oc2cc3occc3cc12 (stereo not drawn) [IM, N-(2,3-dihydroxypropyl)-3-{4-methyl-2-oxo-2H-furo[3,2-g]chromen-3-yl}propanamide]	635	0	0	65	3541	0	0	0	1	5	1.2	0.3	0.8	0	0	0
O=C(c1cnc(N2CCN(C3CCCCC3)CC2)nc1)N1CC2CC(O)C(O)CC2C1 (stereo not drawn) [IIIE, 2-{[2-(4-cyclohexylpiperazin-1-yl)pyrimidin-5-yl]carbonyl}-octahydro-1H-isoindole-5,6-diol]	657	7	0	67	8653	0	0	0	0	7	0.5	0.9	0.8	0	0	0
CC(O)C(O)CN1CCC(Oc2ccc(C(=O)N3CCC(n4cccc4)C3)cc2)CC1 (stereo not drawn) [IVL, 1-[4-(4-{[3-(1H-pyrrol-1-yl)pyrrolidin-1-yl]carbonyl}phenoxy)piperidin-1-yl]butane-2,3-diol]	635	1	7	65	9853	2	3	1	2	2	1.5	1.5	2.5	2	3	12
O=C(CC1COc2ccc(C(=O)Nc3ccccc3)cc2N1)NC(CO)CO (stereo not drawn) [VC, 3-{[(1,3-dihydroxypropan-2-yl)carbamoyl]methyl}-N-phenyl-3,4-dihydro-2H-1,4-benzoxazine-6-carboxamide]	432	0	4	43	6524	0	0	0	0	7	1.2	0.3	0.8	0	0	0
